The values that follow come from patent publication US20050272824A1, “Methods for monitoring combretastatin resistance” (priority 2004, published 2005).

“Also recorded” adds a separate entry of the source. Read-outs that look alike come from different tables or passages of the source.

Assay [1] deals with HT29. Description: In vitro cytotoxicity (modified MTT) assay, HT29. The class given is cell-based. Particulars: HT29, Colorectal Adenocarcinoma; MTT after 48 h; average of three independent experiments in triplicate. How it is done:
(§1) A panel of cells lines obtained from American Type Culture Collection (Rockville, Md., USA) was initially assayed against CA-4 to screen for drug sensitivity. The human non-small cell lung carcinoma (NSCLC), NCI-H460, was selected for resistance based on significant cytotoxicity. H460 cells were grown and maintained in RPMI-1640 supplemented with penicillin-streptomycin, Fungizone® and 10% heat inactivated fetal bovine serum (Invitrogen, Carlsbad, Calif., USA) and maintained at 37° C. humidified 5% CO2 atmosphere. H460 parental cell line was selected for resistance to CA-4, paclitaxel or vinblastine by incubation with stepwise increments of each drug, beginning at 2 nM. Cells were treated with the drugs for 24 h, once a week, and every 2-3 weeks, drug dose was increased by 2 nM increments until 30 nM drug resistance was reached. To select non-MDR resistant cell lines, cells were evolved in the presence of verapamil, an inhibitor of P-glycoprotein (P-gp) drug efflux pump that produces a MDR phenotype. Resistance was maintained by acute 24 h exposure to the corresponding drug and verapamil once a month. […]
(§2) Cytoxicity assays was assessed using a modified MTT assay (Mosmann, 1983). […] Percentage survival was calculated as the OD560 of the treated sample divided by the OD560 of the untreated control cell line. […]

The test system of assay [2] is NCI-H460. Description: In vitro cytotoxicity (modified MTT) assay, H460 parental. The class given is cell-based, human. Particulars: MTT after 48 h. As for the experimental part: (§3) A panel of cells lines obtained from American Type Culture Collection (Rockville, Md., USA) was initially assayed against CA-4 to screen for drug sensitivity. The human non-small cell lung carcinoma (NSCLC), NCI-H460, was selected for resistance based on significant cytotoxicity. H460 cells were grown and maintained in RPMI-1640 supplemented with penicillin-streptomycin, Fungizone® and 10% heat inactivated fetal bovine serum (Invitrogen, Carlsbad, Calif., USA) and maintained at 37° C. humidified 5% CO2 atmosphere. H460 parental cell line was selected for resistance to CA-4, paclitaxel or vinblastine by incubation with stepwise increments of each drug, beginning at 2 nM. Cells were treated with the drugs for 24 h, once a week, and every 2-3 weeks, drug dose was increased by 2 nM increments until 30 nM drug resistance was reached. To select non-MDR resistant cell lines, cells were evolved in the presence of verapamil, an inhibitor of P-glycoprotein (P-gp) drug efflux pump that produces a MDR phenotype. Resistance was maintained by acute 24 h exposure to the corresponding drug and verapamil once a month. All cells used for the experiments were grown logarithmically in drug-free medium at least a week before experiments.
(§4) Cytoxicity assays was assessed using a modified MTT assay (Mosmann, 1983). MTT (3-(4,5-dimethylthiazol-2-yl)-2,5-diphenyl tetrazolium bromide, MTT) was purchased from Sigma (St. Louis, Mo., USA). For each drug treatment, triplicate wells were seeded (5.0×10^3/well) and conditioned overnight. Drugs were prepared by serial dilution with RPMI media and added to the corresponding wells. After 48 h, the MTT assay was performed. Percentage survival was calculated as the OD560 of the treated sample divided by the OD560 of the untreated control cell line. Cell lines were tested with cisplatin to test for non-MDR phenotype.
To select a moderately sensitive cell line for drug-resistance, a panel of susceptible tumor cell lines was screened for CA-4 cytotoxicity. Table 1 depicts the average in vitro cytotoxicity (IC50) values for three independent experiments with each experiment run in triplicate.

For assay [3], the system named is P30 (H460 cells selected at 30 nM paclitaxel). The experiment in a line: In vitro cytotoxicity assay of resistant cell line P30. Type of assay: cell-based, human. Particulars: for IC50: P30 cells (H460 selected at 30 nM paclitaxel), MTT after 48 h; for P30 Resistance Factor: P30 cells relative to parental H460. How it is done: as §3, with “The human non-small cell lung carcinoma (NSCLC), NCI-H460, was selected for resistance based on significant cytotoxicity.” left out
as §4
(§5) C30, P30, and V30 cell lines represent H460 parental cells selected at 30 nM CA-4, paclitaxel, and vinblastine, respectively. […] Cisplatin, an anti-cancer agent with a non-tubulin-binding mode of action was assayed against the cell lines to test for […].

In assay [4] the test system is C30 (H460 cells selected at 30 nM CA-4). The experiment in a line: In vitro cytotoxicity assay of resistant cell line C30. The class given is cell-based, human. The conditions noted are these: for IC50: C30 cells (H460 selected at 30 nM CA-4), MTT after 48 h; for C30 Resistance Factor: C30 cells relative to parental H460. As for the experimental part: as §3, with “The human non-small cell lung carcinoma (NSCLC), NCI-H460, was selected for resistance based on significant cytotoxicity.” left out
as §4, §5

In assay [5] the test system is CEM. Description: In vitro cytotoxicity (modified MTT) assay, CEM. The class given is cell-based. The conditions noted are these: Acute Lymphoblastic Leukemia, MTT after 48 h, average of three independent experiments in triplicate. As for the experimental part: as §1, §2
The test system of assay [6] is DU145. The experiment in a line: In vitro cytotoxicity (modified MTT) assay, DU145. Type of assay: cell-based. Particulars: DU145, Prostate Carcinoma; MTT after 48 h; average of three independent experiments in triplicate. How it is done:
as §1, §2

The test system of assay [7] is V30 (H460 cells selected at 30 nM vinblastine). Description: In vitro cytotoxicity assay of resistant cell line V30. The conditions noted are these: for IC50: V30 cells (H460 selected at 30 nM vinblastine), MTT after 48 h; for V30 Resistance Factor: V30 cells relative to parental H460. The class given is cell-based, human. How it is done: as §3, with “The human non-small cell lung carcinoma (NSCLC), NCI-H460, was selected for resistance based on significant cytotoxicity.” left out
as §4, §5

Assay [8] relates to MCF7. The experiment in a line: In vitro cytotoxicity (modified MTT) assay, MCF7. The class given is cell-based. The conditions noted are these: MCF7, Mammary Gland Adenocarcinoma; MTT after 48 h; average of three independent experiments in triplicate. As for the experimental part: as §1, §2
Assay [9] deals with MOLT4. The experiment in a line: In vitro cytotoxicity (modified MTT) assay, MOLT4. The class given is cell-based. The conditions noted are these: MOLT4, Acute Lymphoblastic Leukemia; MTT after 48 h; average of three independent experiments in triplicate. How it is done:
as §1, §2

The test system of assay [10] is BXPC3. Description: In vitro cytotoxicity (modified MTT) assay, BXPC3. Type of assay: cell-based. Particulars: BXPC3, Pancreatic Adenocarcinoma; MTT after 48 h; average of three independent experiments in triplicate. As for the experimental part: as §1, §2
The mark [11] stands for this setting: H460 parental cells, Table 2, read-out: H460 wild-type IC50.
Setting [12] is: Homo sapiens, NCI-H460, H460 parental cells, Table 2, read-out: H460 wild-type IC50.

For the molecule `COc1ccc(/C=C\c2cc(OC)c(OC)c(OC)c2)cc1O` [CA-4, Combretastatin A-4], the half-inhibitory concentration (IC50) was 55100 nM in assay [1]; 7.3 nM in assay [2] (H460, Non-Small Cell Lung Carcinoma, Table 1 screen, average of three independent experiments in triplicate, read-out: IC50); 7 ± 0.6 nM in [2] (setting [11]); 8.5 ± 0.2 nM in [3]; 19 nM in assay [4]; 0.25 nM in assay [5]. The IC50 was 7.7 nM in assay [6]; 9.2 ± 0.6 nM in [7]; 165000 nM in assay [8]; 4.1 nM in assay [9]; 57000 nM in [10].

`N.N.[Cl][Pt][Cl]` [Cisplatin]: the IC50 is 20 ± 2.6 nM in assay [2] (setting [11]), 25.3 ± 3.1 nM in assay [3], 16.7 ± 3.2 nM in [4] and 21.7 ± 0.6 nM in [7].

`CC(=O)O[C@H]1C(=O)[C@@]2(C)[C@H]([C@H](OC(=O)c3ccccc3)[C@]3(O)C[C@H](OC(=O)[C@H](O)[C@@H](NC(=O)c4ccccc4)c4ccccc4)C(C)=C1C3(C)C)[C@]1(OC(C)=O)CO[C@@H]1C[C@@H]2O` [Paclitaxel]: the IC50 in assay [2] (setting [12]) was 8.1 ± 0.4 nM; in [3] (Homo sapiens, NCI-H460) it was 77 ± 4.9 nM; in assay [4] (Homo sapiens, NCI-H460), 80 ± 2 nM; in assay [7] (Homo sapiens, NCI-H460) it was 87 ± 3.6 nM. Also, the “P30 Resistance Factor” value in assay [3] was 9.6 ± 1.0; in [3] (listed as paclitaxel), “tenfold”. Also, the “C30 Resistance Factor” value is 9.9 ± 0.6 in assay [4] and “tenfold” in assay [4] (listed as paclitaxel). The “V30 Resistance Factor” value is on record as 10.8 ± 1.0 in assay [7] and “eleven fold; also recorded: tenfold” in [7] (listed as paclitaxel).

For `CC[C@]1(O)C[C@@H]2CN(CCc3c([nH]c4ccccc34)[C@@](C(=O)OC)(c3cc4c(cc3OC)N(C)[C@H]3[C@@](O)(C(=O)OC)[C@H](OC(C)=O)[C@]5(CC)C=CCN6CC[C@]43[C@@H]65)C2)C1` [Vinblastine], the half-inhibitory concentration (IC50) was found to be 5.9 ± 0.1 nM in assay [2] (setting [12]); 15.7 ± 4.2 nM in assay [3] (Homo sapiens, NCI-H460); 6 ± 0.3 nM in assay [4] (Homo sapiens, NCI-H460); 26.3 ± 2.1 nM in assay [7] (Homo sapiens, NCI-H460). For the same molecule, the “P30 Resistance Factor” value in assay [3] was 2.7 ± 0.7; in [3] (listed as vinblastine), “threefold”. Also, the entries for the “C30 Resistance Factor” value in [4] and in assay [4] (listed as vinblastine) were 1.0 ± 0.0 and “negligibly resistant”, respectively. For the same molecule, the “V30 Resistance Factor” value in assay [7] was 4.5 ± 0.4; in assay [7] (listed as vinblastine) it was “fivefold”.
